Consider 16 compounds from US12187713B2, “Immunomodulators, compositions and methods thereof” (Betta Pharmaceuticals Co., Ltd, priority 2019, dated 2025).

As usually defined, the IC50 is the concentration needed to halve the response being measured. Low values mean higher potency, high ones lower potency.

One data set addresses PD-1/PD-L1 (Homo sapiens (Human), UniProt Q9NZQ7). Nature of the data set: PD-1/PD-L1 Binding Assay (Alphascreen). A digest of the protocol:
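PD-1/PD-L1 binding detected by anti-6×His acceptor and streptavidin donor beads after 120 min in the dark at 25 °C. Beforehand, the two proteins were incubated 15 min at 25 °C with inhibitor at 0.015–300 nM (1% DMSO). IC50 comes from a log concentration–response curve.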

Data set [1] is described as follows: Pharmacokinetic Assay, single oral dose 5 mg/kg (Table 12). Format: in vivo. Particulars: mouse, plasma concentration, C57 female mice, single oral dose 5 mg/kg. How it is done: Adult C57 female mice were received to single-dose of the test compounds with 15% DMSO, 10% Kolliphor^@HS 15 and 75% saline as excipients, the mice (n=3) were giving oral administration (intragastric administration) with the compounds at a dose of 5 mg/kg. Time of blood collection: 30 min, 2 h, 4 h. approximately 0.1 mL of whole blood was collected from retro-orbital venous plexus, and placed into tubes that contained K2-EDTA as an anticoagulant. The whole blood were centrifuged at 4° C. and 4000 rpm for 10 min. The plasma was transferred into centrifuge tubes, and stored at −20° C. until being analyzed. Concentrations of test compounds in the plasma samples were analyzed with liquid chromatography-tandem mass spectrometry (LC-MS/MS). Plasma concentration-time data of individual animals was analyzed using Microsoft Excel 2010.

Chain of PD-1/PD-L1 (Q9NZQ7 19-238): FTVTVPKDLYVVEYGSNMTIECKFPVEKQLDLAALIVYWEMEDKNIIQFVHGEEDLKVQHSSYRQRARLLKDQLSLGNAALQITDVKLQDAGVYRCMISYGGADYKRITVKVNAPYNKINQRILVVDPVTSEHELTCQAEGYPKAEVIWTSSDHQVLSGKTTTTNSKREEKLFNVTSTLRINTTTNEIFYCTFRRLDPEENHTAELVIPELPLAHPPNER

With `Cc1c(-c2ccc(CN3Cc4ccccc4C3)c(F)c2)cccc1-c1cccc(-c2nc3cc(CN4CCC[C@H]4C(=O)O)c(OC(F)F)cc3o2)c1C` [Example 241, ((6-(difluoromethoxy)-2-(3″-fluoro-4″- (isoindolin-2-ylmethyl)-2,2′-dimethyl-[1,1′:3′,1″-terphenyl]-3-yl)benzo[d]oxazol-5-yl)methyl)proline], the 50% inhibitory concentration (IC50) at PD-1/PD-L1 (range symbols) lay within 5 to 50 nM. In data set [1], this compound had a concentration at 0.5 h of 102 ng/mL, a concentration at 2 h of 234 ng/mL and a concentration at 4 h of 294 ng/mL.

`Cc1c(-c2nc3cc(CN4CCCC4)c(OC(F)F)cc3o2)cccc1-c1cccc(-c2nc3cc(CN4CCC[C@@H]4C(=O)O)c(OC(F)F)cc3o2)c1C` [Example 66, ((6-(difluoromethoxy)-2-(3′-(6-(difluoromethoxy)-5-(pyrrolidin-1-ylmethyl)benzo[d]oxazol-2-yl)-2,2′-dimethyl-[1,1′-biphenyl]-3-yl)benzo[d]oxazol-5-yl)methyl)-D-proline] returned an IC50 on PD-1/PD-L1 (numeric values) of 1.8 nM. Moreover, in data set [1], the concentration at 2 h came to 137 ng/mL and the concentration at 4 h was 111 ng/mL.

As to `Cc1c(-c2nc3cc(CN4CC=CC4)c(OC(F)F)cc3o2)cccc1-c1cccc(-c2nc3cc(CN4CCC[C@H]4C(=O)O)c(OC(F)F)cc3o2)c1C` [Example 70, ((6-(difluoromethoxy)-2-(3′-(6-(difluoromethoxy)-5-((2,5-dihydro-1H-pyrrol-1-yl)methyl)benzo[d]oxazol-2-yl)-2,2′-dimethyl-[1,1′-biphenyl]-3-yl)benzo[d]oxazol-5-yl)methyl)-L-proline], the concentration for half-maximal inhibition (IC50) on PD-1/PD-L1 (numeric values) worked out at 3.3 nM. Moreover, in data set [1], the concentration at 0.5 h is 36.4 ng/mL, the concentration at 2 h worked out at 151 ng/mL and the concentration at 4 h turned out to be 158 ng/mL.

On to `COc1nc(-c2cccc(-c3cccc(-c4nc5cc(CN6CCC[C@H]6C(=O)O)c(OC(F)F)cc5o4)c3C)c2C)ccc1CN1CCC(C)(C)C1` [Example 294, ((6-(difluoromethoxy)-2-(3′-(5-((3,3-dimethylpyrrolidin-1-yl)methyl)-6-methoxypyridin-2-yl)-2,2′-dimethyl-[1,1′-biphenyl]-3-yl)benzo[d]oxazol-5-yl)methyl)-L-proline], for which the half-inhibitory concentration (IC50) on PD-1/PD-L1 (range symbols) was in the range of 0.1 to 5 nM. In data set [1], this compound yielded a concentration at 0.5 h of 80.4 ng/mL, a concentration at 2 h of 193 ng/mL and a concentration at 4 h of 186 ng/mL.

The compound `COc1nc(-c2cccc(-c3cccc(-c4nc5cc(CN6CCC[C@H]6C(=O)O)c(OC(F)F)cc5o4)c3C)c2C)ccc1CN1CC[C@H](C)C1` [Example 246, ((6-(difluoromethoxy)-2-(3′-(6-methoxy-5-(((S)-3-methylpyrrolidin-1-yl)methyl)pyridin-2-yl)-2,2′-dimethyl-[1,1′-biphenyl]-3-yl)benzo[d]oxazol-5-yl)methyl)-L-proline] gave an IC50 at PD-1/PD-L1 (numeric values) of 1.8 nM. Besides, in data set [1], the concentration at 0.5 h was 87.2 ng/mL, the concentration at 2 h amounted to 261 ng/mL and the concentration at 4 h was found to be 285 ng/mL.

Compound `Cc1c(-c2nc3cc(CN4CCC[C@H]4C(=O)O)c(OC(F)F)cc3o2)cccc1-c1cccc(-c2nc3cc(CN4CCCC4)c(C(F)(F)F)cc3o2)c1C` [Example 101, ((6-(difluoromethoxy)-2-(2,2′-dimethyl-3′-(5-(pyrrolidin-1-ylmethyl)-6-(trifluoromethyl)benzo[d]oxazol-2-yl)-[1,1′-biphenyl]-3-yl)benzo[d]oxazol-5-yl)methyl)-L-proline] returned a concentration for half-maximal inhibition (IC50) at PD-1/PD-L1 (numeric values) of 2.2 nM. For the same compound, in data set [1], the concentration at 0.5 h worked out at 178 ng/mL, the concentration at 2 h was found to be 640 ng/mL and the concentration at 4 h stood at 579 ng/mL.

`COc1c(-c2nc3cc(CN4CCCC4)c(F)c(F)c3o2)cccc1-c1cccc(-c2nc3cc(CN4CCC[C@H]4C(=O)O)c(OC(F)F)cc3o2)c1C` [Example 117, ((2-(3′-(6,7-difluoro-5-(pyrrolidin-1-ylmethyl)benzo[d]oxazol-2-yl)-2′-methoxy-2-methyl-[1,1′-biphenyl]-3-yl)-6-(difluoromethoxy)benzo[d]oxazol-5-yl)methyl)-L-proline] had an IC50 at PD-1/PD-L1 (range symbols) of 0.1 to 5 nM. In data set [1], the concentration at 0.5 h was 121 ng/mL, the concentration at 2 h was found to be 319 ng/mL and the concentration at 4 h stood at 243 ng/mL.

As to `Cc1c(-c2nc3cc(CN4CCC[C@H]4C(=O)O)c(OC(F)F)cc3o2)cccc1-c1cccc(-c2nc3cc(CN4CCCC4)c(F)c(F)c3n2CC(F)(F)F)c1C` [Example 299, ((2-(3′-(6,7-difluoro-5-(pyrrolidin-1-ylmethyl)-1-(2,2,2-trifluoroethyl)-1H-benzo[d]imidazol-2-yl)-2,2′-dimethyl-[1,1′-biphenyl]-3-yl)-6-(difluoromethoxy)benzo[d]oxazol-5-yl)methyl)-L-proline], the IC50 on PD-1/PD-L1 (range symbols) was over 50 nM. In addition, in data set [1], the concentration at 0.5 h was 27.9 ng/mL, the concentration at 2 h is 212 ng/mL and the concentration at 4 h worked out at 89.2 ng/mL.

On PD-1/PD-L1 (range symbols), `Cc1c(-c2ccc(CN3CC[C@@H](c4ccccc4)C3)c(F)c2)cccc1-c1cccc(-c2nc3cc(CN4CCC[C@H]4C(=O)O)c(OC(F)F)cc3o2)c1C` [Example 248, ((6-(difluoromethoxy)-2-(3″-fluoro-2,2′-dimethyl-4″-(((S)-3-phenylpyrrolidin-1-yl)methyl)-[1,1′:3′,1″-terphenyl]-3-yl)benzo[d]oxazol-5-yl)methyl)proline] displayed a half-inhibitory concentration (IC50) of 5 to 50 nM. Moreover, in data set [1], the concentration at 0.5 h amounted to 89 ng/mL, the concentration at 2 h amounted to 271 ng/mL and the concentration at 4 h was 369 ng/mL.

`COC1CCN(Cc2ccc(-c3cccc(-c4cccc(-c5nc6cc(CN7CCC[C@H]7C(=O)O)c(OC(F)F)cc6o5)c4C)c3C)cc2)C1` (stereo partly drawn) [Example 227, ((6-(difluoromethoxy)-2-(4″-((3-methoxypyrrolidin-1-yl)methyl)-2,2′-dimethyl-[1,1′:3′,1″-terphenyl]-3-yl)benzo[d]oxazol-5-yl)methyl)-L-proline] returned a half-maximal inhibitory concentration (IC50) at PD-1/PD-L1 (numeric values) of 4.1 nM. In data set [1], the concentration at 0.5 h came to 36.9 ng/mL, the concentration at 2 h was 149 ng/mL and the concentration at 4 h amounted to 114 ng/mL.

The compound `Cc1c(-c2ccc(CN3CCC(F)C3)cc2)cccc1-c1cccc(-c2nc3cc(CN4CCC[C@H]4C(=O)O)c(OC(F)F)cc3o2)c1C` (stereo partly drawn) [Example 242, ((6-(difluoromethoxy)-2-(4″-((3-fluoropyrrolidin-1-yl)methyl)-2,2′-dimethyl-[1,1′:3′,1″-terphenyl]-3-yl)benzo[d]oxazol-5-yl)methyl)proline] came in with an IC50 on PD-1/PD-L1 (range symbols) of 0.1 to 5 nM. In data set [1], the concentration at 0.5 h came to 90.4 ng/mL, the concentration at 2 h was determined as 223 ng/mL and the concentration at 4 h was 202 ng/mL.

`Cc1c(-c2nc3cc(CN4CCC[C@H]4C(=O)O)c(OC(F)F)cc3o2)cccc1-c1cccc(-c2ccc(CN3CCCC3)s2)c1C` [Example 280, ((6-(difluoromethoxy)-2-(2,2′-dimethyl-3′-(5-(pyrrolidin-1-ylmethyl)thiophen-2-yl)-[1,1′-biphenyl]-3-yl)benzo[d]oxazol-5-yl)methyl)-L-proline]: on PD-1/PD-L1 (numeric values), the IC50 stood at 5.7 nM. In data set [1], this compound yielded a concentration at 0.5 h of 33.6 ng/mL, a concentration at 2 h of 171 ng/mL and a concentration at 4 h of 113 ng/mL.

For the compound `Cc1c(-c2nc3cc(CN4CCN(C)C(C)C4)c(OC(F)F)cc3o2)cccc1-c1cccc(-c2nc3cc(CN4CCC[C@H]4C(=O)O)c(OC(F)F)cc3o2)c1C` (stereo partly drawn) [Example 23, ((6-(difluoromethoxy)-2-(3′-(6-(difluoromethoxy)-5-((3,4-dimethylpiperazin-1-yl)methyl)benzo[d]oxazol-2-yl)-2,2′-dimethyl-[1,1′-biphenyl]-3-yl)benzo[d]oxazol-5-yl)methyl)-L-proline], the IC50 on PD-1/PD-L1 (numeric values) is 7.7 nM. In data set [1], this compound had a concentration at 0.5 h of 46.2 ng/mL, a concentration at 2 h of 148 ng/mL and a concentration at 4 h of 94.7 ng/mL.

Take `Cc1c(-c2nc3cc(CN4CCC[C@H]4C(=O)O)c(OC(F)F)cc3o2)cccc1-c1cccc(-c2nc3cc(CN4CC[C@@H](C)C4)cc(C#N)c3o2)c1C` [Example 131, ((2-(3′-(7-cyano-5-(((R)-3-methylpyrrolidin-1-yl)methyl)benzo[d]oxazol-2-yl)-2,2′-dimethyl-[1,1′-biphenyl]-3-yl)-6-(difluoromethoxy)benzo[d]oxazol-5-yl)methyl)-L-proline]: the concentration for half-maximal inhibition (IC50) on PD-1/PD-L1 (numeric values) was determined as 2.3 nM. In data set [1], this compound showed a concentration at 0.5 h of 108 ng/mL, a concentration at 2 h of 301 ng/mL and a concentration at 4 h of 470 ng/mL.

`Cc1c(-c2nc3c(o2)CCOC3)cccc1-c1cccc(-c2nc3cc(CN4CCC[C@H]4C(=O)O)c(OC(F)F)cc3o2)c1C` [Example 203, ((6-(difluoromethoxy)-2-(3′-(6,7-dihydro-4H-pyrano[3,4-d]oxazol-2-yl)-2,2′-dimethyl-[1,1′-biphenyl]-3-yl)benzo[d]oxazol-5-yl)methyl)proline] showed a half-maximal inhibitory concentration (IC50) on PD-1/PD-L1 (numeric values) of 12 nM. In data set [1], this compound came in with a concentration at 0.5 h of 819 ng/mL, a concentration at 2 h of 1030 ng/mL and a concentration at 4 h of 833 ng/mL.

As to `Cc1c(-c2nc3cc(CN4CCC[C@H]4C(=O)O)c(OC(F)F)cc3o2)cccc1-c1cccc(-c2ccc(CN3CCCC3)cc2F)c1C` [Example 253, ((6-(difluoromethoxy)-2-(2″-fluoro-2,2′-dimethyl-4″-(pyrrolidin-1-ylmethyl)-[1,1′:3′,1″- terphenyl]-3-yl)benzo[d]oxazol-5-yl)methyl)-L-proline], on PD-1/PD-L1 (numeric values), the IC50 worked out at 4.7 nM. In data set [1], this compound came in with a concentration at 0.5 h of 42.3 ng/mL, a concentration at 2 h of 199 ng/mL and a concentration at 4 h of 181 ng/mL.
